Measurements taken from patent US9617256B2 (priority 2007, dated 2017).
Converted amounts (≈) assume the structure as drawn. Read-outs that look alike come from different tables or passages of the source.

Legend:
[1] = system: APAE006 (strain of P. aeruginosa in which all efflux pumps are inactivated); experiment: microbe, parasite or virus in culture; type: cell-based; conditions: Pseudomonas aeruginosa, read-out: MIC APAE006, APAE006, all efflux pumps inactivated
Summary of the method: (§1)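 Growth inhibition was scored by CLSI broth microdilution using cation-adjusted Mueller-Hinton broth and a final inoculum between 3×10^5 and 7×10^5 CFU/mL, incubated 18-24 hours at 35° C.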

[2] = system: AABA1060 (clinical isolate of Acinetobacter baumannii); experiment: MIC broth microdilution, AABA1060; type: cell-based; conditions: Acinetobacter baumannii, read-out: MIC AABA1060
Summary of the method: (§2)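 Incubation: 35° C., ambient air, 18-24 h. Medium: cation-adjusted Mueller-Hinton broth with 2-fold serial dilutions of drug. Inoculum: 3×10^5–7×10^5 CFU/mL final, per CLSI microdilution method.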

[3] = system: AECO063 (ATCC25922 bearing an acrAB mutation); experiment: microbe, parasite or virus in culture; type: cell-based, E. coli; conditions: Escherichia coli, ATCC25922, read-out: MIC AECO063
Summary of the method: as §2

[4] = system: AECO001 (ATCC25922); experiment: MIC broth microdilution, AECO001; type: cell-based, E. coli; conditions: Escherichia coli
Summary of the method: as §2

[5] = system: APAE001 (ATCC27853); experiment: MIC broth microdilution, APAE001; type: cell-based, P. aeruginosa; conditions: Pseudomonas aeruginosa, ATCC27853, read-out: MIC APAE001, APAE001 (ATCC27853)
Summary of the method: as §2

[6] = system: APAE006 in the presence of 8 micrograms per milliliter of polymyxin B nonapeptide; type: cell-based, P. aeruginosa; conditions: APAE006 with 8 micrograms per milliliter polymyxin B nonapeptide
Summary of the method: as §1

[7] = system: ASAU001 (laboratory strain of S. aureus, ATCC29213); experiment: MIC broth microdilution, ASAU001; type: cell-based; conditions: Staphylococcus aureus, ATCC29213, read-out: MIC ASAU001
Summary of the method: as §2

[8] = ATCC25922, read-out: MIC AECO001
[9] = ATCC25922, read-out: MIC AECO001 HSA AGP

CC(C)(N)[C@H](NC(=O)c1ccc(C#C/C=C/c2ccccc2)cc1)C(=O)NO [Example 104-5]
MIC [1]: < 2 µg/mL
MIC [2]: < 2 µg/mL
MIC [3]: < 2 µg/mL
MIC [4, 8]: < 2 µg/mL
MIC [4, 9]: < 2 µg/mL
MIC [5]: 2 to 16 µg/mL (≈ 5.3 to 42.4 µM)
MIC APAE006 + PMBN [6]: A (MIC's of 2.0 μg/mL or less = A)
MIC [7]: 2 to 16 µg/mL (≈ 5.3 to 42.4 µM)

C[C@@H](O)[C@H](NC(=O)c1ccc(C#C/C=C/c2ccncc2)cc1)C(=O)NO [Example 106-1, N-((1S,2R)-2-Hydroxy-1-hydroxycarbamoyl-propyl)-4-((E)-4-pyridin-4-yl-but-3-en-1-ynyl)-benzamide]
MIC [1]: < 2 µg/mL
MIC [2]: 16 to 64 µg/mL (≈ 43.8 to 175 µM)
MIC [3]: < 2 µg/mL
MIC [4, 8]: < 2 µg/mL
MIC [4, 9]: 2 to 16 µg/mL (≈ 5.47 to 43.8 µM)
MIC [5]: 16 to 64 µg/mL (≈ 43.8 to 175 µM)
MIC APAE006 + PMBN [6]: A (MIC's of 2.0 μg/mL or less = A)
MIC [7]: 16 to 64 µg/mL (≈ 43.8 to 175 µM)

CC(C)(O)[C@H](NC(=O)c1ccc(C#C/C=C/c2ccncc2)cc1)C(=O)NO [Example 106-2]
MIC [1]: < 2 µg/mL
MIC [2]: 2 to 16 µg/mL (≈ 5.27 to 42.2 µM)
MIC [3]: < 2 µg/mL
MIC [4, 8]: < 2 µg/mL
MIC [4, 9]: 2 to 16 µg/mL (≈ 5.27 to 42.2 µM)
MIC [5]: 2 to 16 µg/mL (≈ 5.27 to 42.2 µM)
MIC APAE006 + PMBN [6]: A (MIC's of 2.0 μg/mL or less = A)
MIC [7]: 16 to 64 µg/mL (≈ 42.2 to 169 µM)

C[C@@H](N)[C@H](NC(=O)c1ccc(C#C/C=C/c2ccncc2)cc1)C(=O)NO [Example 106-3]
MIC [1]: < 2 µg/mL
MIC [2]: 16 to 64 µg/mL (≈ 43.9 to 176 µM)
MIC [3]: < 2 µg/mL
MIC [4, 8]: < 2 µg/mL
MIC [4, 9]: 16 to 64 µg/mL (≈ 43.9 to 176 µM)
MIC [5]: < 2 µg/mL
MIC APAE006 + PMBN [6]: A (MIC's of 2.0 μg/mL or less = A)
MIC [7]: 16 to 64 µg/mL (≈ 43.9 to 176 µM)

C[C@@H](N)[C@H](NC(=O)c1ccc(C#C/C=C/c2cccnc2)cc1)C(=O)NO [Example 106-4]
MIC [1]: < 2 µg/mL
MIC [2]: 16 to 64 µg/mL (≈ 43.9 to 176 µM)
MIC [3]: < 2 µg/mL
MIC [4, 8]: 2 to 16 µg/mL (≈ 5.49 to 43.9 µM)
MIC [4, 9]: 16 to 64 µg/mL (≈ 43.9 to 176 µM)
MIC [5]: 2 to 16 µg/mL (≈ 5.49 to 43.9 µM)
MIC APAE006 + PMBN [6]: A (MIC's of 2.0 μg/mL or less = A)
MIC [7]: 16 to 64 µg/mL (≈ 43.9 to 176 µM)

CC(C)(O)[C@H](NC(=O)c1ccc(C#C/C=C/c2cccnc2)cc1)C(=O)NO [Example 106-5]
MIC [1]: < 2 µg/mL
MIC [2]: 2 to 16 µg/mL (≈ 5.27 to 42.2 µM)
MIC [3]: < 2 µg/mL
MIC [4, 8]: < 2 µg/mL
MIC [4, 9]: 2 to 16 µg/mL (≈ 5.27 to 42.2 µM)
MIC [5]: 2 to 16 µg/mL (≈ 5.27 to 42.2 µM)
MIC APAE006 + PMBN [6]: A (MIC's of 2.0 μg/mL or less = A)
MIC [7]: 16 to 64 µg/mL (≈ 42.2 to 169 µM)

C[C@@H](N)[C@H](NC(=O)c1ccc(C#C/C=C/c2ccc(F)cc2)cc1)C(=O)NO [Example 106-6]
MIC [1]: < 2 µg/mL
MIC [2]: 2 to 16 µg/mL (≈ 5.24 to 41.9 µM)
MIC [3]: < 2 µg/mL
MIC [4, 8]: < 2 µg/mL
MIC [4, 9]: 16 to 64 µg/mL (≈ 41.9 to 168 µM)
MIC [5]: 2 to 16 µg/mL (≈ 5.24 to 41.9 µM)
MIC APAE006 + PMBN [6]: A (MIC's of 2.0 μg/mL or less = A)
MIC [7]: 16 to 64 µg/mL (≈ 41.9 to 168 µM)

CC(C)(O)[C@H](NC(=O)c1ccc(C#C/C=C/c2ccc(F)cc2)cc1)C(=O)NO [Example 106-7]
MIC [1]: < 2 µg/mL
MIC [2]: 2 to 16 µg/mL (≈ 5.05 to 40.4 µM)
MIC [3]: < 2 µg/mL
MIC [4, 8]: < 2 µg/mL
MIC [4, 9]: 2 to 16 µg/mL (≈ 5.05 to 40.4 µM)
MIC [5]: 2 to 16 µg/mL (≈ 5.05 to 40.4 µM)
MIC APAE006 + PMBN [6]: A (MIC's of 2.0 μg/mL or less = A)
MIC [7]: 16 to 64 µg/mL (≈ 40.4 to 161 µM)

CC(C)(O)[C@H](NC(=O)c1ccc(C#C/C=C/C2CC2)cc1)C(=O)NO [Example 107-1, 4-((E)-4-Cyclopropyl-but-3-en-1-ynyl)-N—((S)-2-hydroxy-1-hydroxycarbamoyl-2-methyl-propyl)-benzamide]
MIC [1]: < 2 µg/mL
MIC [2]: 2 to 16 µg/mL (≈ 5.84 to 46.7 µM)
MIC [3]: < 2 µg/mL
MIC [4, 8]: < 2 µg/mL
MIC [4, 9]: 2 to 16 µg/mL (≈ 5.84 to 46.7 µM)
MIC [5]: < 2 µg/mL
MIC APAE006 + PMBN [6]: A (MIC's of 2.0 μg/mL or less = A)
MIC [7]: 16 to 64 µg/mL (≈ 46.7 to 187 µM)

C[C@@H](N)[C@H](NC(=O)c1ccc(C#C/C=C/C2CC2)cc1)C(=O)NO [Example 107-2]
MIC [1]: < 2 µg/mL
MIC [2]: < 2 µg/mL
MIC [3]: < 2 µg/mL
MIC [4, 8]: < 2 µg/mL
MIC [4, 9]: 2 to 16 µg/mL (≈ 6.11 to 48.9 µM)
MIC [5]: < 2 µg/mL
MIC APAE006 + PMBN [6]: A (MIC's of 2.0 μg/mL or less = A)
MIC [7]: 2 to 16 µg/mL (≈ 6.11 to 48.9 µM)

C[C@@H](O)[C@H](NC(=O)c1ccc(C#C/C=C/C2CC2)cc1)C(=O)NO [Example 107-3]
MIC [1]: < 2 µg/mL
MIC [2]: 2 to 16 µg/mL (≈ 6.09 to 48.7 µM)
MIC [3]: < 2 µg/mL
MIC [4, 8]: < 2 µg/mL
MIC [4, 9]: 2 to 16 µg/mL (≈ 6.09 to 48.7 µM)
MIC [5]: < 2 µg/mL
MIC APAE006 + PMBN [6]: A (MIC's of 2.0 μg/mL or less = A)
MIC [7]: 16 to 64 µg/mL (≈ 48.7 to 195 µM)

CC(C)(N)[C@H](NC(=O)c1ccc(C#C/C=C/C2CC2)cc1)C(=O)NO [Example 107-4]
MIC [1]: < 2 µg/mL
MIC [2]: < 2 µg/mL
MIC [3]: < 2 µg/mL
MIC [4, 8]: < 2 µg/mL
MIC [4, 9]: < 2 µg/mL
MIC [5]: < 2 µg/mL
MIC APAE006 + PMBN [6]: A (MIC's of 2.0 μg/mL or less = A)
MIC [7]: 2 to 16 µg/mL (≈ 5.86 to 46.9 µM)
